Experimental data reported in patent US20250195521A1 (Revolution Medicines, Inc., priority 2020, published 2025).
pEC50, pIC50: −log10 of the molar value. Read-outs that look alike come from different tables or passages of the source.

Legend:
[1] = system: NCI-H358 cells (K-Ras G12C); assay: CellTiter-Glo cell viability, NCI-H358; format: cell-based, human; details: K-Ras G12C, 5-day treatment, read-out: H358 Cell Viability IC50
Procedure, shortened: (§1)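 Cells seeded, compound dispensed straight into wells, 5-day exposure. Plates brought to room temperature ~30 min, CellTiter-Glo luminescence measured. Normalized to DMSO (%), 4-parameter logistic fit.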

[2] = system: Capan-1 cells (K-Ras G12V); assay: CellTiter-Glo cell viability, Capan-1; format: cell-based, human; details: K-Ras G12V, 5-day treatment, read-out: Capan-1 Cell Viability IC50
Procedure, shortened: as §1

NRAS Q61R = NRAS Q61R (Homo sapiens (Human), UniProt P01111+P62937, Q61R); assay: Ras-Raf disruption/FRET/MOA assay (BRAF RBD, Cyclophilin A); format: biochemical
Sequence of NRAS Q61R (P01111 whole entry Q61R): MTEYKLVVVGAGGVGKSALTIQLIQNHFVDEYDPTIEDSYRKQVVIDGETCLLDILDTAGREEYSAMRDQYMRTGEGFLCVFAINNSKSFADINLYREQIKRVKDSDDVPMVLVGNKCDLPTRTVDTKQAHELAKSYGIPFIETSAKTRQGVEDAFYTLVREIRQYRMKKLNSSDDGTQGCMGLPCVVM
Sequence of NRAS Q61R (P62937 whole entry): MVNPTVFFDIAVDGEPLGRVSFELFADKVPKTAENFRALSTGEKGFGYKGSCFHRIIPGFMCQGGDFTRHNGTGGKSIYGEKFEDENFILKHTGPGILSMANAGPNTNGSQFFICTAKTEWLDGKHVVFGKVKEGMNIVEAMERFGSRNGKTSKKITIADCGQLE
Procedure, shortened: (§2)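 TR-FRET readout: anti-His Eu-W1024 (10 nM) and anti-GST allophycocyanin (50 nM) added after 3 h, 25° C compound incubation, then 1.5 h more. Decrease in FRET ratio versus DMSO wells marks Ras:RAF disruption; IC50 reported.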

NRAS WT = NRAS WT (Homo sapiens (Human), UniProt P01111+P62937); assay: as above; format: biochemical
Sequence of NRAS WT (P01111 whole entry): as the sequence (P01111 whole entry Q61R) above, with R61Q counted along it
Sequence of NRAS WT (P62937 whole entry): as the sequence (P62937 whole entry) above
Procedure, shortened: as §2

KRAS G13C = KRAS G13C (Homo sapiens (Human), UniProt P01116+P62937, G13C); assay: as above; format: biochemical; details: read-out: KRAS G13C FRET IC50
Sequence of KRAS G13C (P01116 other isoform, or with tags, fused parts or gaps G13C): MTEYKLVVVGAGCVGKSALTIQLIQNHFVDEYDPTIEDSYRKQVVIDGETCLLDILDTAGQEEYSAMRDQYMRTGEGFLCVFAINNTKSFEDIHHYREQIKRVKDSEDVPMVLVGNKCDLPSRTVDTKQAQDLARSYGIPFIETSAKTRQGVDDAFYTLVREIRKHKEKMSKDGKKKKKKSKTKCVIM
Sequence of KRAS G13C (P62937 whole entry): as the sequence (P62937 whole entry) above
Procedure, shortened: (§3)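 His6-K-Ras-GMPPNP (12.5 nM), GST-BRAF RBD (50 nM) and tagless Cyclophilin A (25 μM) were combined in 25 mM HEPES pH 7.3 with 100 mM NaCl, 5 mM MgCl2, 0.1% BSA and 0.002% Tween20, with compound as a 10-point 3-fold series from 30 μM final, then incubated 3 h at 25° C.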

KRAS Q61H = KRAS Q61H (Homo sapiens (Human), UniProt P01116+P62937, Q61H); assay: as above; format: biochemical
Sequence of KRAS Q61H (P01116 other isoform, or with tags, fused parts or gaps Q61H): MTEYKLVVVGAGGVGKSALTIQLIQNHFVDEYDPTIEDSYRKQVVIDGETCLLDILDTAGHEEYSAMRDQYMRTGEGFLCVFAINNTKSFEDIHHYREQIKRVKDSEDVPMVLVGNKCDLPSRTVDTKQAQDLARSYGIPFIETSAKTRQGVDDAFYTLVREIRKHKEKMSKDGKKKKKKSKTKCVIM
Sequence of KRAS Q61H (P62937 whole entry): as the sequence (P62937 whole entry) above
Procedure, shortened: as §3

KRAS G12D = KRAS G12D (Homo sapiens (Human), UniProt P01116+P62937, G12D); assay: as above; format: biochemical; details: read-out: KRAS G12D FRET IC50
Sequence of KRAS G12D (P01116 other isoform, or with tags, fused parts or gaps G12D): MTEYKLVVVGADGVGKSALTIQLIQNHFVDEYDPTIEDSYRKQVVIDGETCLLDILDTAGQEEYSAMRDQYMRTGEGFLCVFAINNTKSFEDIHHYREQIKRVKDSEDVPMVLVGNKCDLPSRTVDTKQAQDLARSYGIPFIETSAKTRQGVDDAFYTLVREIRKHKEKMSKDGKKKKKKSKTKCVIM
Sequence of KRAS G12D (P62937 whole entry): as the sequence (P62937 whole entry) above
Procedure, shortened: as §3

NRAS Q61K = NRAS Q61K (Homo sapiens (Human), UniProt P01111+P62937, Q61K); assay: as above; format: biochemical
Sequence of NRAS Q61K (P01111 whole entry Q61K): as the sequence (P01111 whole entry Q61R) above, with R61K counted along it
Sequence of NRAS Q61K (P62937 whole entry): as the sequence (P62937 whole entry) above
Procedure, shortened: as §2

[3] = system: K-Ras G12C (NCI-H358 cells); assay: Potency assay: pERK in NCI-H358 cells; format: cell-based, human; details: NCI-H358 cells, 4 hours, read-out: pERK EC50 (H358 KRAS G12C)
Procedure, shortened: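 Cells plated the day before were exposed for 4 h at 37° C, 5% CO2 to a 10-point, 3-fold DMSO dilution series (10 mM top stock), in duplicate. Phospho-ERK was read by AlphaLISA SureFire Ultra or by In-Cell Western with DRAQ5 DNA stain, and IC50 came from a 4-parameter sigmoidal fit.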

KRAS WT = KRAS WT (Homo sapiens (Human), UniProt P01116+P62937); assay: Ras-Raf disruption/FRET/MOA assay (BRAF RBD, Cyclophilin A); format: biochemical; details: read-out: KRAS WT FRET data IC50
Sequence of KRAS WT (P01116 other isoform, or with tags, fused parts or gaps): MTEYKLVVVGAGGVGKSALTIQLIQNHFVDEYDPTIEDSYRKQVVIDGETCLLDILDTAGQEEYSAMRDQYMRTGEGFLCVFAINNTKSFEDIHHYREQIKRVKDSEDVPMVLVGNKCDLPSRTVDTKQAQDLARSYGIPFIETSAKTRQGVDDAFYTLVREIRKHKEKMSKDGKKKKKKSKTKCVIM
Sequence of KRAS WT (P62937 whole entry): as the sequence (P62937 whole entry) above
Procedure, shortened: as §3

KRAS G12C = KRAS G12C (Homo sapiens (Human), UniProt P01116+P62937, G12C); assay: as above; format: biochemical; details: read-out: KRAS G12C FRET IC50
Sequence of KRAS G12C (P01116-2 other isoform, or with tags, fused parts or gaps G12C): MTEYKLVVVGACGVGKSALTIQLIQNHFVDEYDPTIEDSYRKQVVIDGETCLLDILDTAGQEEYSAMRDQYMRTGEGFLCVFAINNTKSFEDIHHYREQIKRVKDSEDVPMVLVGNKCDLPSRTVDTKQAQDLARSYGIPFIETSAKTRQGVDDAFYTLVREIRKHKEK
Sequence of KRAS G12C (P62937 whole entry): as the sequence (P62937 whole entry) above
Procedure, shortened: as §3

NRAS G12C = NRAS G12C (Homo sapiens (Human), UniProt P01111+P62937, G12C); assay: as above; format: biochemical; details: read-out: NRAS G12C FRET data IC50
Sequence of NRAS G12C (P01111 whole entry G12C): as the sequence (P01111 whole entry Q61R) above, with G12C, R61Q counted along it
Sequence of NRAS G12C (P62937 whole entry): as the sequence (P62937 whole entry) above
Procedure, shortened: as §2

KRAS G13D = KRAS G13D (Homo sapiens (Human), UniProt P01116+P62937, G13D); assay: as above; format: biochemical; details: read-out: KRAS G13D FRET data IC50
Sequence of KRAS G13D (P01116 other isoform, or with tags, fused parts or gaps G13D): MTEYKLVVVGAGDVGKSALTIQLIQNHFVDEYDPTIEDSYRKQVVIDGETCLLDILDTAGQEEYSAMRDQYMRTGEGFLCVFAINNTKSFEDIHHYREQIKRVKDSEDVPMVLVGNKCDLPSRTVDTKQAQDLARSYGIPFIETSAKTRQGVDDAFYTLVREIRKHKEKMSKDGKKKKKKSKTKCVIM
Sequence of KRAS G13D (P62937 whole entry): as the sequence (P62937 whole entry) above
Procedure, shortened: as §3

KRAS G12V = KRAS G12V (Homo sapiens (Human), UniProt P01116+P62937, G12V); assay: as above; format: biochemical; details: read-out: KRAS G12V FRET IC50
Sequence of KRAS G12V (P01116 other isoform, or with tags, fused parts or gaps G12V): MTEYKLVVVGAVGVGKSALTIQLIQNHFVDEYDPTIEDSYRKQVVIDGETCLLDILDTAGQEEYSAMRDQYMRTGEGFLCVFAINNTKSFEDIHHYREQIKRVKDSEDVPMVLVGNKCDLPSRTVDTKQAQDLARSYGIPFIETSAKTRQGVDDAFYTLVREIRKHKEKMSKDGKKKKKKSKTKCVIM
Sequence of KRAS G12V (P62937 whole entry): as the sequence (P62937 whole entry) above
Procedure, shortened: as §3

KRAS G12S = KRAS G12S (Homo sapiens (Human), UniProt P01116+P62937, G12S); assay: as above; format: biochemical; details: read-out: KRAS G12S FRET IC50
Sequence of KRAS G12S (P01116 other isoform, or with tags, fused parts or gaps G12S): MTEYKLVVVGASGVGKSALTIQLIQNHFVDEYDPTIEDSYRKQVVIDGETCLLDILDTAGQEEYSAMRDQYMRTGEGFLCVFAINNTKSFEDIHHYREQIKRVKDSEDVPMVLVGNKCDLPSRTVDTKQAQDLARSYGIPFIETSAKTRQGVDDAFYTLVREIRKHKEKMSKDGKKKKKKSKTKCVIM
Sequence of KRAS G12S (P62937 whole entry): as the sequence (P62937 whole entry) above
Procedure, shortened: as §3

Structure (SMILES)	pIC50 [1]	pIC50 [2]	pIC50 (NRAS Q61R)	pIC50 (NRAS WT)	pIC50 (KRAS G13C)	pIC50 (KRAS Q61H)	pIC50 (KRAS G12D)	pIC50 (NRAS Q61K)	pEC50 [3]	pIC50 ([2]; Homo sapiens, CAPAN-1, 120 h)	pIC50 (KRAS WT)	pIC50 (KRAS G12C)	pIC50 (NRAS G12C)	pIC50 (KRAS G13D)	pIC50 (KRAS G12V)	pIC50 (KRAS G12S)	pEC50 ([3]; Homo sapiens)	pIC50 ([1]; Homo sapiens, NCI-H358, 120 h)
CCn1c(-c2cccnc2[C@H](C)OC)c2c3cc(ccc31)-c1cc(O)cc(c1)C[C@H](NC(=O)[C@H](C(C)C)N(C)C(=O)N1CC(N(C)C)C1)C(=O)N1CCC[C@H](N1)C(=O)OCC(C)(C)C2 [Compound A170]	7.00 to 8.00	7.00 to 8.00	6.00 to 7.00	6.00 to 7.00	6.00 to 7.00	6.00 to 7.00	5.00 to 6.00	7.00 to 8.00	> 5.30									
CCn1c(-c2cccnc2[C@H](C)OC)c2c3cc(ccc31)-c1cc(c3cn[nH]c3c1)C[C@H](NC(=O)[C@H](C(C)C)N(C)C(C)=O)C(=O)N1CCC[C@H](N1)C(=O)OCC(C)(C)C2 [Compound A388]			5.00 to 6.00	5.00 to 6.00	6.00 to 7.00	6.00 to 7.00	< 5.00	5.00 to 6.00		5.00 to 6.00	5.00 to 6.00	5.00 to 6.00	5.00 to 6.00	5.00 to 6.00	5.00 to 6.00	5.00 to 6.00	> 5.30	
CCn1c(-c2cccnc2[C@H](C)OC)c2c3cc(ccc31)-c1csc(n1)C[C@H](NC(=O)[C@H](C(C)C)N(C)C(=O)N1CC[C@@]13CCCNC3)C(=O)N1CCC[C@H](N1)C(=O)OCC(C)(C)C2 [Compound A435]			5.00 to 6.00	6.00 to 7.00	6.00 to 7.00	6.00 to 7.00	6.00 to 7.00	5.00 to 6.00		5.00 to 6.00	6.00 to 7.00	6.00 to 7.00	6.00 to 7.00	6.00 to 7.00	5.00 to 6.00	6.00 to 7.00	> 5.30	
CCn1c(-c2cccnc2[C@H](C)OC)c2c3cc(ccc31)-c1csc(n1)C[C@H](NC(=O)[C@H](C(C)C)N(C)C(=O)N1CC3(CCCN(C)C3=O)C1)C(=O)N1CCC[C@H](N1)C(=O)OCC(C)(C)C2 [Compound A453]			6.00 to 7.00	5.00 to 6.00	5.00 to 6.00	6.00 to 7.00	< 5.00	6.00 to 7.00		5.00 to 6.00	5.00 to 6.00	6.00 to 7.00	6.00 to 7.00		5.00 to 6.00	5.00 to 6.00		5.00 to 6.00
CCn1c(-c2cccnc2[C@H](C)OC)c2c3cc(ccc31)-c1csc(n1)C[C@H](NC(=O)[C@H](C(C)C)N(C)C(=O)N1CC[C@@H]3CN(C)C[C@@H]31)C(=O)N1CCC[C@H](N1)C(=O)OCC(C)(C)C2 [Compound A470]			5.00 to 6.00	5.00 to 6.00	6.00 to 7.00	6.00 to 7.00	5.00 to 6.00	5.00 to 6.00		6.00 to 7.00	5.00 to 6.00	5.00 to 6.00	5.00 to 6.00	5.00 to 6.00	5.00 to 6.00	5.00 to 6.00	> 5.30	
CCn1c(-c2cccnc2[C@H](C)OC)c2c3cc(ccc31)-c1csc(n1)C[C@H](NC(=O)[C@H](C(C)C)N(C)C(=O)N1CCOCC13COC3)C(=O)N1CCC[C@H](N1)C(=O)OCC(C)(C)C2 [Compound A474]			6.00 to 7.00	6.00 to 7.00	6.00 to 7.00	7.00 to 8.00	5.00 to 6.00	6.00 to 7.00		7.00 to 8.00	6.00 to 7.00	6.00 to 7.00	6.00 to 7.00	5.00 to 6.00	6.00 to 7.00	6.00 to 7.00	> 5.30	
CCn1c(-c2cc(N3CCN(C)CC3)cnc2[C@H](C)OC)c2c3cc(ccc31)-c1csc(n1)C[C@H](NC(=O)[C@H](C(C)C)N(C)C(=O)[C@@H]1OCC[C@@H]1c1cccnc1)C(=O)N1CCC[C@H](N1)C(=O)OCC(C)(C)C2 [Compound A490]			6.00 to 7.00	6.00 to 7.00	6.00 to 7.00	6.00 to 7.00	5.00 to 6.00	6.00 to 7.00		7.00 to 8.00	6.00 to 7.00	6.00 to 7.00	6.00 to 7.00	5.00 to 6.00	6.00 to 7.00	6.00 to 7.00	> 5.30	
